A short description of data set [1]: Pharmacokinetic study in mice. The class given is in vivo, mouse. The conditions noted are these: for bioavailability: po. As for the experimental part: Male CD‐1 male mice were orally dosed with 1, 3, or 10 mg/kg API of LY3358966 SDD dissolved in water or were IV dosed with 1 mg/kg LY3358966 formulated in 25% dimethylacetamide, 15% ethanol, 10% propylene glycol, 25% 2‐pyrrolidone, and 25% water. Each dose group contained six animals. Three animals were bled at 0.25, 0.5, 1, 2, 4, 8, 12, and 24 h, with each animal being bled at alternate time points. Plasma drug levels were determined by HPLC/MS. The unbound fraction of LY3358966 in plasma was determined with equilibrium dialysis and LC‐MS/MS.

For data set [2], the system named is intestinal phosphate absorption. The data set is described as follows: Recovery of radiolabeled phosphate in feces of mice. The class given is in vivo, mouse. As to the method: Male C57BL/6 male mice, 9 weeks old (23–28 g, n = 10/group), were dosed with either placebo or LY3358966 SDD (9 mg/kg API) dissolved in water at t = −4.25, −0.25, and 3.75 h. The animals were fasted from t = −4 to t = 0 h. At t = 0, the animals were dosed with radiolabeled phosphate as described above and were given free access to food. Feces were collected at 6, 24, and 48 h, digested overnight at 37°C in 1 N NaOH, and the recovered radioactivity was determined. Most of the radiolabeled phosphate was recovered in the first 24 h. […] In all cases, the investigators collecting feces were blinded to the treatment.

A further data set in a line: Solubility at stomach pH. Type of data set: physicochemical. Conditions: at the pH of the stomach.
In the next data set the target is T1, human NPT2b (Homo sapiens, UniProt O95436).
T1 construct: Full-Length cDNA Cloning and Generation of Cell Lines Over-Expressing Human, Mouse, and Rat NPT2b; host or cells: CHO-K1 / T-REx CHO, pcDNA5/TO, tetracycline-induced
T1 sequence (O95436 1-690): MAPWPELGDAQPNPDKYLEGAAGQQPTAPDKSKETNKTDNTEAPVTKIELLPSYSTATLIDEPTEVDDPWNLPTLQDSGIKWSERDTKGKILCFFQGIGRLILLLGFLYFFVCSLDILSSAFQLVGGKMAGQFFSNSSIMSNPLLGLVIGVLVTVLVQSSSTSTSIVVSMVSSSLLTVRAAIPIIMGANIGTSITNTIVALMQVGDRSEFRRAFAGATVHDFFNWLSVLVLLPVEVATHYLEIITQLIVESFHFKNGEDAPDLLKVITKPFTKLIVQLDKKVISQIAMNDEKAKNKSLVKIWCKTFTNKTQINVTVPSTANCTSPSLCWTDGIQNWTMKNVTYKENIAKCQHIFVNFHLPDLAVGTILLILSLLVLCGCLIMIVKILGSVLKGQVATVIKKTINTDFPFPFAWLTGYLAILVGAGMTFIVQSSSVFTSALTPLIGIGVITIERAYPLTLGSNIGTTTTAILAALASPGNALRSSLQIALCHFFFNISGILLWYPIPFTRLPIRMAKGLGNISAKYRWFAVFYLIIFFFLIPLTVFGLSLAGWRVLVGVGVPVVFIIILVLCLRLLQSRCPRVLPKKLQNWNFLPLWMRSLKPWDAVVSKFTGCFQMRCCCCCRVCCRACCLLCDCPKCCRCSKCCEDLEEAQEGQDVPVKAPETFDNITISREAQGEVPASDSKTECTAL
The data set is described as follows: 33P-phosphate uptake in CHO cells expressing human NPT2b. The class given is cell-based. The conditions noted are these: geometric mean; 2.5 µM phosphate, 60 min, room temperature. As for the experimental part:
T‐Rex™ Chinese Hamster Ovary cells (CHO; Thermo Fisher Scientific) stably expressing human, mouse, or rat NPT2b under a tetracycline‐inducible promoter were generated using standard cDNA transfection and clone selection procedures (see Supporting Information). Cells were plated in 96‐well CytoStar‐T® scintillating microplates and were incubated overnight in growth media plus 100 ng/ml of tetracycline to induce expression of NPT2b. The next day, cells were washed 3 times with 200 µl assay buffer (137 mM NaCl, 5.4 mM KCl, 2.8 mM CaCl2, 1.2 mM MgSO4, and 14 mM Tris‐HCl buffer, pH 7.5). LY3358966 serially diluted 1‐to‐3 in DMSO was added to cells with assay buffer. An equal volume of H3 ^33PO4 (PerkinElmer) in assay buffer supplemented with 5 µM potassium phosphate was then added to initiate radiolabeled phosphate (^33P‐phosphate) uptake. The final phosphate concentration was 2.5 µM and the final DMSO concentration was 1%. Following a 60‐min incubation at room temperature, an equal volume of assay buffer containing 400 µM phloretin was added to stop ^33P‐phosphate uptake. The plate was immediately read on a Wallac MicroBeta Trilux liquid scintillation counter. Percent inhibition at all concentrations tested was calculated, and IC50 values were then determined using a 4‐parameter logistic curve fitting equation.
The vendors for target cDNA are listed in supplemental Table 1. […]

[3] abbreviates: across all dose groups, from unbound fraction 0.005.
The mark [4] stands for this setting: male, CD-1, mouse, plasma, IV 1 mg/kg.
[5] abbreviates: male, CD-1, mouse, plasma, PO 1 mg/kg.
Where [6] appears, read: male, CD-1, mouse, plasma, PO 3 mg/kg.
Where [7] appears, read: male, CD-1, mouse, plasma, PO 10 mg/kg.
Where [8] appears, read: 9 mg/kg API x 3 doses at 4-h intervals.

This is an account of results in article PMC8863579, “Effects of pharmacological inhibition of the sodium‐dependent phosphate cotransporter 2b (NPT2b) on intestinal phosphate absorption in mouse and rat models” (Pharmacology Research & Perspectives, 2022).

The structures appear in SMILES notation. Where “and” joins values, the source holds several entries; their conditions need not be identical. Equal entries are not always repeated. Where two headings read alike, the source gives them in different places.

The term AUC denotes the area under the concentration-time curve, a measure of exposure. The low end stands for low exposure, the high end for high exposure. Broadly, the half-life is the time needed for the level to fall by half in the phase considered. A high value points to slow decline. By Cmax is commonly meant the maximum level reached in the sampled fluid or tissue. The term Tmax denotes the time from dosing to the highest level. The bioavailability is dose-corrected exposure relative to a reference, in per cent. As usually defined, the IC50 is the midpoint of a concentration-inhibition curve. With `CC1(C)CN(C(=O)NCCCCO)CCN1Cc1cccc(C(=O)Nc2sc3c(c2C(=O)Nc2cc(F)c(CCc4ccc(C(=O)O)cc4)c(F)c2)CCCC3)c1` [LY3358966, 4‐[2‐[2,6‐difluoro‐4‐[[2‐[[3‐[[4‐(4‐hydroxybutylcarbamoyl)‐2,2‐dimethyl‐piperazin‐1‐yl]methyl]benzoyl]amino]‐4,5,6,7‐tetrahydrobenzothiophene‐3‐carbonyl]amino]phenyl]ethyl]benzoic acid], the “C max of unbound LY3358966” value in data set [1] (setting [3]) is below 1 nM. For the same compound, the “plasma AUC of unbound LY3358966” value in data set [1] (setting [3]) is below 0.002 µM·h. Besides, the AUC in data set [1] (setting [4]) is 0.323 µM·h; in data set [1] (male, CD-1, mouse, plasma, PO 1 mg/kg, SDD dissolved in water), 0.039 µM·h; in data set [1] (male, CD-1, mouse, plasma, PO 3 mg/kg, SDD dissolved in water), 0.096 µM·h; in data set [1] (male, CD-1, mouse, plasma, PO 10 mg/kg, SDD dissolved in water) it was 0.284 µM·h. The half-life in data set [1] (setting [4]) is 300 min. The Cmax in data set [1] (setting [5]) is 25 nM; in data set [1] (setting [6]), 50 nM; in data set [1] (setting [7]) it was 83 nM. Besides, the time to peak (Tmax) in data set [1] (setting [5]), in data set [1] (setting [6]) and in data set [1] (setting [7]) was 24 min in each case. Also, the bioavailability was 12% in data set [1] (male, CD-1, mouse, plasma, 1 mg/kg, PO 1 mg/kg, read-out: F (bioavailability)); 10% in data set [1] (male, CD-1, mouse, plasma, 3 mg/kg, PO 3 mg/kg, read-out: F (bioavailability)); 9% in data set [1] (male, CD-1, mouse, plasma, 10 mg/kg, PO 10 mg/kg, read-out: F (bioavailability)); 9 to 12% in data set [1] (male, CD-1, mouse, plasma, 10 mg/kg, PO 1, 3 and 10 mg/kg, read-out: oral bioavailability F). The “33P Recovered in Feces (0-6 hrs), Mean ± SEM” value in data set [2] (setting [8]) worked out at 6.08 ± 1.68%. For the same compound, the “33P Recovered in Feces (6-24 hrs), Mean ± SEM” value in data set [2] (setting [8]) is on record as 10.77 ± 1.57%. Also, in data set [2] (setting [8]), the “33P Recovered in Feces (24-48 hrs), Mean ± SEM” value amounted to 1.60 ± 0.08%. Moreover, the “33P Recovered in Total Feces (0-48 hrs), Mean ± SEM” value in data set [2] (9 mg/kg API x 3 doses at 4-h intervals, 9 mg/kg) is 18.44% and 18.44 ± 1.27%. The “increase in radiolabeled phosphate recovered in feces versus vehicle” value in data set [2] (48 h, 9 mg/kg API x 3, 9 mg/kg) is 8.6 % of the dose and 8.58 % of the dose. Besides, the solubility result in “Solubility at stomach pH” is on record as “minimal solubility”. The compound further registered a 50% inhibitory concentration (IC50) at human NPT2b of 32.4 nM.
